In patent publication US20050246797A1, “Gene participating in the synthesis of brassinosteroid” (priority 2002, published 2005):
Like-named read-outs stand apart in the source and are kept apart here.

Legend:
[1] = Concentrations of brassinosteroids in Arabidopsis strains by HPLC and GC-MS
Description: The concentrations of brassinosteroids were determined in wild strains (Ws-2), the strain of reference example 1 (rot3-1 and rot3-5, suppressed function of ROT3) and the strain of reference example 3 (rot3/CYP90D1, suppressed function of ROT3 and CYP90D1) of Arabidoposis. The concentration was determined by harvesting the ground part of the plants at the time of rosette formation by reaping, by freezing and drying, and by detecting using HPLC and GC-MS.

[2] = system: strains of suppressed function of both ROT3 and CYP90D1; assay: Treatment of plants/leaves of the ROT3- and CYP90D1-suppressed strain with brassinosteroid intermediates or brassinolide (leaf morphology, FIG. 3); type: in vivo, Arabidopsis; settings: aqueous solution 0.1 μM, submersion with gentle shaking
Description: The strain with suppressed function of both ROT3 and CYP90D1 prepared in reference example 2 was cultured from seeds in sterilized conditions. The seeds of the above-described strain were seeded on the MS medium (solidified by 0.2% Gelrite) supplemented with 2% (w/v) sucrose and were conventionally cultured at 23° C. under continuous illumination after seeding under sterilized conditions.
The above-described plants (strains of suppressed function of both ROT3 and CYP90D1) were cultured in the above-described aqueous solution at the level of submersion under the solution with gently shaking. In the case of the treatment of leaves with the above-described intermediates or brassionolide, leafstalks were cut out by a surgical knife after taking out the plants under sterilized conditions and were treated in the same way. […] Namely, ROT3 and CYP90D1 are cooperatively involved in the synthesis of brassinolide, the final product of the biosynthetic pathway of brassinosteriods.

[3] = rot3/CYP90D1 (suppressed function of ROT3 and CYP90D1), ground part of plants at rosette formation

Compound	concentration of brassinosteroid, rot3/CYP90D1 [1] [ng/g]	concentration of brassinosteroid, rot3/CYP90D1 [1, 3]	effect on leaf size/morphology of plants without the function of ROT3 and CYP90D1 [2]	amount in the strain with suppressed function of both ROT3 and CYP90D1 ([1]; rot3/CYP90D1, in words)
CC(C)[C@H](C)[C@@H](O)[C@H](O)[C@@H](C)[C@H]1CC[C@H]2[C@@H]3CC[C@H]4C[C@H](O)[C@H](O)C[C@]4(C)[C@H]3CC[C@]12C [6-Deoxocastasterone]	0.034	–	–	–
CC(C)[C@H](C)[C@@H](O)[C@H](O)[C@@H](C)[C@H]1CC[C@H]2[C@@H]3CC(=O)[C@H]4C[C@H](O)[C@H](O)C[C@]4(C)[C@H]3CC[C@]12C [Castasterone]	–	0.020 ng/g	–	–
CC(C)[C@H](C)[C@@H](O)[C@H](O)[C@@H](C)C1CCC2C3OC(=O)[C@H]4C[C@H](O)[C@H](O)C[C@]4(C)C3CC[C@@]21C (stereo partly shown) [Brassinolide]	–	— (— in the table shows that the value is less than the limit of detection (0.001 ng/g))	induced large size of leaves	extremely decreased
CC(C)[C@H](C)[C@@H](O)[C@H](O)[C@@H](C)[C@H]1CC[C@H]2[C@@H]3CC[C@H]4C[C@H](O)CC[C@]4(C)[C@H]3CC[C@]12C [3-Deoxotyphasterol]	–	0.38 ng/g	–	–
CC(C)[C@H](C)[C@@H](O)[C@H](O)[C@@H](C)[C@H]1CC[C@H]2[C@@H]3CC[C@H]4C[C@@H](O)CC[C@]4(C)[C@H]3CC[C@]12C [6-Deoxoteasterone]	–	0.26 ng/g	–	–
